Laboratory results reported in patent US6521654B2, “Substituted imidazolidine derivatives, their preparation, their use and pharmaceutical preparations including them” (Aventis Pharma Deutschland GmbH, priority 1997, dated 2003).

Target: T1, interaction between VCAM-1 and VLA-4 (Homo sapiens, UniProt P05556+P13612)
T1 construct: supplied in their natural form as surface molecules on human U937 cells; host or cells: U937 cells carry endogenous VLA-4; The partner hVCAM-1(1-3)-IgG was made in house in transfected COS cells (ATCC CRL1651) and used as culture supernatant
T1 sequence (P13612 34-1032): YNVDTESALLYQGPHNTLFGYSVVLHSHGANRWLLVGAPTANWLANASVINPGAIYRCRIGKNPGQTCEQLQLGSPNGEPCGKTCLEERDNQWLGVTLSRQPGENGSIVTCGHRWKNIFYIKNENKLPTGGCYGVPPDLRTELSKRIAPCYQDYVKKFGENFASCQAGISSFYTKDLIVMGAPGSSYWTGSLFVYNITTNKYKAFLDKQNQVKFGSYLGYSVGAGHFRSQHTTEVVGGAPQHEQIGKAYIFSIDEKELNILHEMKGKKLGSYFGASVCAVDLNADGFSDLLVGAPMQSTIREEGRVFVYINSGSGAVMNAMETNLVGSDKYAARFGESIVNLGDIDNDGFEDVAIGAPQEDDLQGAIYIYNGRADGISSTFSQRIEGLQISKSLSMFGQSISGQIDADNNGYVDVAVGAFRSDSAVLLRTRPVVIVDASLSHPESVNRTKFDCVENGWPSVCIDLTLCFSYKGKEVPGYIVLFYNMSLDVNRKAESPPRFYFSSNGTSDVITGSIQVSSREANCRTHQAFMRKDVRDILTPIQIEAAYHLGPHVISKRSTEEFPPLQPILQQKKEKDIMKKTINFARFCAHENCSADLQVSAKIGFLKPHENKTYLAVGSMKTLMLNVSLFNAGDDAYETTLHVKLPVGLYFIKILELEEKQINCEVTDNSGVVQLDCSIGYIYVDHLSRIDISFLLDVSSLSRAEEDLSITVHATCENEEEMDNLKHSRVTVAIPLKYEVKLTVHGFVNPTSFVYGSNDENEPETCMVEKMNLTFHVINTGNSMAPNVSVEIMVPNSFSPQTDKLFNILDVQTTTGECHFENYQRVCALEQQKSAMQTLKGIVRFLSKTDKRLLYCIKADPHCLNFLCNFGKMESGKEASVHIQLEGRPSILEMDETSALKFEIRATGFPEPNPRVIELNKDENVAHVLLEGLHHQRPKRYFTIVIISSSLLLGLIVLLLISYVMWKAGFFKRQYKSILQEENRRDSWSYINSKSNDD
T1 sequence (P05556 21-798): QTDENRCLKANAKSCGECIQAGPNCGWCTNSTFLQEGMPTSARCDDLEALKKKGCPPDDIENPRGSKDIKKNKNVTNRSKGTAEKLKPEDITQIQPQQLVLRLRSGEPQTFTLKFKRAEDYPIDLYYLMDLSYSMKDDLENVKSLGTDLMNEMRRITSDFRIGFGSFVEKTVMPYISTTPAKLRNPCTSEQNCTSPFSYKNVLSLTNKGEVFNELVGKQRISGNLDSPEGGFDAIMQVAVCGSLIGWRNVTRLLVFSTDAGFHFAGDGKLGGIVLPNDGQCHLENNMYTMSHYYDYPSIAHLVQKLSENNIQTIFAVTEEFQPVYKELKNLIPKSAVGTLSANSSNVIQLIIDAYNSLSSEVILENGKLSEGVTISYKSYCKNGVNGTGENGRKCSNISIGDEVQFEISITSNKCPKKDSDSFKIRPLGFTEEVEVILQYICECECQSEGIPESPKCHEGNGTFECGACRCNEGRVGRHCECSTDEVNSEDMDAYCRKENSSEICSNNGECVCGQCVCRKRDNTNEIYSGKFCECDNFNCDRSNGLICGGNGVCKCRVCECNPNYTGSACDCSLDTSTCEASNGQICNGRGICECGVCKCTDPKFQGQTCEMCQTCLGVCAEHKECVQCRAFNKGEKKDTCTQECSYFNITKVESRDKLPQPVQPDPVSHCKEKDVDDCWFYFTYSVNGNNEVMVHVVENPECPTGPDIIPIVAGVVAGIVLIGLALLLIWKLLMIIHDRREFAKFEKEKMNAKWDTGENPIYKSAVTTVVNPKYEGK
Test: U937/VCAM-1 cell adhesion test (adhesion of U937 cells to hVCAM-1(1-3)-IgG)
Assay type: cell-based
Conditions: concentration leading to 50% inhibition of adhesion of human U937 cells (ATCC CRL 1593) to hVCAM-1(1-3)-IgG
Text: The test method used for the activity of the compounds of the formula I on the interaction between VCAM-1 and VLA-4 is the assay described below which is specific for this interaction. The cellular binding components, i.e., the VLA-4 integrins, are supplied in their natural form as surface molecules on human U937 cells (ATCC CRL 1593). which belong to the leucocytes group. The specific binding components used are genetically engineered recombinant soluble fusion proteins, consisting of the extracytoplasmatic domain of human VCAM-1 and the constant region of a human immunoglobulin of the subclass IgG1.
Assay for the Measurement of the Adhesion of U937 Cells (ATCC CRL 1593) to hVCAM-1(1-3)-IgG
1. Preparation of Human VCAM-1 (1-3)-IgG and Human CD4-IgG
A genetic construct for the expression of the extracellular domain of human VCAM-1, associated with the genetic sequence of the heavy chain of human immunoglobulin IgG1 (hinge, CH2 and CH3 regions), from Dr. Brian Seed, Massachusetts General Hospital. Boston, USA was employed (cf. Damle and Aruffo, Proc. Natl. Acad. Sci. USA 1991, 88, 6403-6407). The soluble fusion protein hVCAM-1(1-3)-IgG contained the three amino-terminal extracellular immunoglobulin-like domains of human VCAM-1 (Damle and Aruffo, Proc. Natl. Acad. Sci. USA 1991, 88, 6403-6407). CD4-IgG (Zettimeissl et al., DNA and Cell Biology 1990, 9, 347) served as a fusion protein for negative controls. The recombinant proteins were expressed as soluble proteins after DEAE/dextran-mediated DNA transfection in COS cells (ATCC CRL1651) according to standard procedures (Ausubel et al., Current Protocols in Molecular Biology, John Wiley & Sons, Inc., 1994).
2. Assay for the Measurement of the Adhesion of U937 Cells to hVCAM-1 (1-3)-IgG
2.1 96-well microtiter test plates (Nunc Maxisorb) were incubated at room temperature for 1 hour with 100 μl/well of a goat-anti-human IgG antibody solution (10 μg/ml in 50 mM tris, pH 9.5). After removal of the antibody solution, washing was carried out once with PBS.
2.2 150 μl/well of a blocking buffer (1% BSA in PBS) were incubated on the plates at room temperature for 0.5 hour. After removal of the blocking buffer, washing was carried out once with PBS.
2.3 100 μl per well of a cell culture supernatant of transfected COS cells were incubated on the plates at room temperature for 1.5 hours. The COS cells were transfected with a plasmid which codes for the three N-terminal immunoglobulin-like domains of VCAM-1, coupled to the Fc part of human IgG1 (hVCAM-1 (1-3)-IgG). The content of hVCAM-1 (1-3)-IgG was about 0.5-1 μg/ml. After removal of the culture supernatant, washing was carried out once with PBS.
2.4 The plates were incubated at room temperature for 20 minutes with 100 μl/well of Fc receptor blocking buffer (1 mg/ml of γ-globulin, 100 mM NaCl, 100 μM MgCl2, 100 μM MnCl2, 100 μM CaCl2, 1 mg/ml of BSA in 50 mM HEPES, pH 7.5). After removal of the Fc receptor blocking buffer, washing was carried out once with PBS.
2.5 20 μl of binding buffer (100 mM NaCl, 100 μM MgCl2, 100 μM MnCl2, 100 μM CaCl2, 1 mg/ml of BSA in 50 mM HEPES, pH 7.5) were initially introduced, and the substances to be tested were added in 10 μl of binding buffer and incubated for 20 minutes. The controls used were antibodies against VCAM-1 (BBT, No. BBA6) and against VLA-4 (immunotech, No. 0764).
2.6 U937 cells were incubated in Fc receptor blocking buffer for 20 minutes and then added by pipette in a concentration of 1×10^6/ml and in an amount of 100 μl per well ([…]).
2.7 The plates were slowly immersed at an angle of 45° in stop buffer (100 mM NaCl, 100 μM MgCl2, 100 μM MnCl2, 100 μM CaCl2 in 25 mM tris, pH 7.5) and shaken off. The process was repeated.
2.8 50 μl/well of a dye solution (16.7 μg/ml of Hoechst Dye 33258, 4% formaldehyde, 0.5% triton X-100 in PBS) were then incubated on the plates for 15 minutes. […]

IC50 | SMILES
450 nM | Cc1ccccc1NC(=O)Nc1ccc(CN2C(=O)N(C(CC(C)C)C(=O)NC(CC(=O)O)c3ccc(CC(C)C)cc3)C(=O)C2(C)c2ccccc2)cc1 (stereo not shown) [Example 194]
0.85 nM | Cc1ccccc1NC(=O)Nc1ccc(CN2C(=O)N([C@@H](CC(C)C)C(=O)N[C@@H](CC(=O)O)C(=O)N[C@H](C(=O)O)c3ccccc3)C(=O)C2(C)C)cc1 [Example 47, ((S)-2-(4,4-Dimethyl-3-(4-(3-(2-methylphenyl)ureido)benzyl)-2,5-dioxoimidazolidin-1-yl)-2-(2-methylpropyl)acetyl)-L-aspartyl-L-phenylglycine]
400 nM | COC(=O)c1ccccc1NC(=O)Nc1ccc(CN2C(=O)N(CC(=O)N[C@H](C)CC(=O)O)C(=O)C2(C)C)cc1 [Example 38]
160 nM | Cc1ccccc1NC(=O)Nc1ccc(CN2CC(=O)N(CC(=O)N(C)[C@@H](CC(=O)O)C(=O)NC3C4CC5CC(C4)CC3C5)C2=O)cc1 (stereo partly shown) [Example 20]
11 nM | Cc1ccccc1NC(=O)Nc1ccc(CN2C(=O)N([C@@H](CC(C)C)C(=O)N[C@@H](CC(=O)O)c3ccc(-c4ccccc4)cc3)C(=O)C2(C)C)cc1 [Example 185]
15 nM | COc1ccc(C(CC(=O)O)NC(=O)C(CC(C)C)N2C(=O)N(Cc3ccc(NC(=O)Nc4ccccc4C)cc3)C(C)(c3ccccc3)C2=O)cc1 (stereo not shown) [Example 193]
55 nM | Cc1ccccc1NC(=O)Nc1ccc(CN2C(=O)N([C@@H](CC(C)C)C(=O)NCCC(=O)O)C(=O)C2(C)C)cc1 [Example 16, 3-((S)-2-(4,4-Dimethyl-3-(4-(3-(2-methylphenyl)ureido)benzyl)-2,5-dioxoimidazolidin-1-yl)-2-(2-methylpropyl)acetylamino)propionic Acid]
110 nM | Cc1ccccc1NC(=O)Nc1ccc(CN2C(=O)N(CC(=O)N(C)[C@@H](CC(=O)O)C(=O)O)C(=O)C2(C)C)cc1 [Example 28, (2-(4,4-Dimethyl-3-(4-(3-(2-methylphenyl)ureido)benzyl)-2,5-dioxoimidazolidin-1-yl)-acetyl)-N-methyl-L-aspartic Acid]
50 nM | Cc1ccccc1NC(=O)Nc1ccc(CN2C(=O)N(C(CC(C)C)C(=O)NC(CC(=O)O)c3ccc(F)cc3)C(=O)C2(C)c2ccccc2)cc1 (stereo not shown) [Example 216]
1.6 nM | COc1ccc([C@H](CC(=O)O)NC(=O)[C@H](CC(C)C)N2C(=O)N(Cc3ccc(NC(=O)Nc4ccccc4C)cc3)C(C)(C)C2=O)c(OC)c1 [Example 188]
1470 nM | CCc1cccc(C)c1NC(=O)Nc1ccc(CN2C(=O)N(CC(=O)N[C@@H](CC(=O)O)c3ccccc3)C(=O)C2(C)C)cc1 [Example 41]
4 nM | CC(C)CC(C(=O)N[C@@H](CC(=O)O)C(=O)N[C@H](C(=O)O)c1ccccc1)N1C(=O)N(Cc2ccc(NC(=O)Nc3ccccc3)cc2)C(C)(c2ccccc2)C1=O (mixture of isomers) [Example 1, ((RS)-2-((RS)-4-Phenyl-3-(4-(3-phenylureido)benzyl)-4-methyl-2,5-dioxoimidazolidin-1-yl)-2-(2-methylpropyl)acetyl)-L-aspartyl-L-phenylglycine]
13 nM | CC(C)C[C@@H](C(=O)N[C@@H](CC(=O)O)C(=O)N[C@H](C(=O)O)c1ccccc1)N1C(=O)N(Cc2ccc(NC(=O)Nc3ccc(F)cc3)cc2)C(C)(C)C1=O [Example 49]
5 nM | CC(C)C[C@@H](C(=O)N[C@@H](CC(=O)O)C(=O)N[C@H](C(=O)O)c1ccccc1)N1C(=O)N(Cc2ccc(NC(=O)Nc3ccccc3Cl)cc2)C(C)(C)C1=O [Example 62]
4 nM | Cc1ccccc1NC(=O)Nc1ccc(CN2C(=O)N([C@@H](CC(C)C)C(=O)N[C@@H](CC(=O)O)c3ccc4ccccc4c3)C(=O)C2(C)C)cc1 [Example 184]
6 nM | CC1(C)C(=O)N(CC(=O)N[C@@H](CC(=O)O)C(=O)NC2C3CC4CC(C3)CC2C4)C(=O)N1Cc1ccc(NC(=O)Nc2ccccc2)cc1 (stereo partly drawn) [Example 24, (2-(4,4-Dimethyl-3-(4-(3-phenylureido)benzyl)-2,5-dioxoimidazolidin-1-yl)-acetyl)-L-(2-adamantyl)aspartamide]
300 nM | CC(C)C[C@@H](C(=O)N[C@@H](CC(=O)O)C(=O)N[C@H](C(=O)O)c1ccccc1)N1C(=O)N(Cc2ccc(NC(=O)Nc3ccccc3C(F)(F)F)cc2)C(C)(C)C1=O [Example 68]
10 nM | Cc1ccccc1NC(=O)Nc1ccc(CN2C(=O)N(CC(=O)N[C@@H](CC(=O)O)c3ccccc3)C(=O)C2(C)C)cc1 [Example 11, (S)-3-(2-(4,4-Dimethyl-3-(4-(3-(2-methylphenyl)ureido)benzyl)2,5-dioxoimidazolidin-1-yl)acetylamino)-3-phenylpropionic Acid]
890 nM | Cc1ccccc1NC(=O)Nc1ccc(CN2CC(=O)N(CC(=O)N[C@@H](CC(=O)O)c3ccccc3)C2=O)cc1 [Example 29, (S)3-(2-(3-(4-(3-(2-Methylphenyl)ureido)benzyl)-2,5-dioxoimidazolidin-1-yl)-acetylamino)-3-phenylpropionic Acid]
50 nM | COc1ccc([C@H](CC(=O)O)NC(=O)C(CC(C)C)N2C(=O)N(Cc3ccc(NC(=O)Nc4ccccc4C)cc3)C(C)(c3ccccc3)C2=O)c(OC)c1 (mixture of isomers) [Example 189, (S)-3-((RS)-2-((RS)-4-Methyl-4-phenyl-3-(4-(3-(2-methylphenyl)ureido)benzyl)-2,5-dioxoimidazolidin-1-yl)-2-(2-methylpropyl)acetylamino)-3-(2,4-dimethoxyphenyl)propionic Acid]
450 nM | CC(C)C[C@@H](C(=O)N[C@@H](CC(=O)O)C(=O)N[C@H](C(=O)O)c1ccccc1)N1C(=O)N(Cc2ccc(NC(=O)NCc3ccccc3)cc2)C(C)(C)C1=O [Example 58]
25 nM | Cc1ccccc1NC(=O)Nc1ccc(CN2C(=O)N([C@@H](CC(C)C)C(=O)NC(CC(=O)O)c3ccccc3)C(=O)C2(C)C)cc1 (mixture of isomers) [Example 196, (RS)-3-((S)-2-(4,4-Dimethyl-3-(4-(3-(2-methylphenyl)ureido)benzyl)-2,5-dioxoimidazolidin-1-yl)-2-(2-methylpropyl)acetylamino)-3-phenylpropionic Acid]
8 nM | COc1ccc(C(CC(=O)O)NC(=O)C(CC(C)C)N2C(=O)N(Cc3ccc(NC(=O)Nc4ccccc4C)cc3)C(C)(c3ccccc3)C2=O)cc1OC (stereo not shown) [Example 190]
4 nM | Cc1ccccc1NC(=O)Nc1ccc(CN2C(=O)N(CC(=O)N(C)[C@@H](CC(=O)O)C(=O)NC3C4CC5CC(C4)CC3C5)C(=O)C2(C)C)cc1 (stereo partly drawn) [Example 22, (2-(4,4-Dimethyl-3-(4-(3-(2-methylphenyl)ureido)benzyl)-2,5-dioxoimidazolidin-1-yl)-acetyl)-N-methyl-L-(2-adamantyl)aspartamide]
3.8 nM | Cc1ccccc1NC(=O)Nc1ccc(CN2C(=O)N([C@@H](CC(C)C)C(=O)N[C@H](C)CC(=O)O)C(=O)C2(C)C)cc1 [Example 8, (R)-3-((S)-2-(4,4-Dimethyl-3-(4-(3-(2-methylphenyl)ureido)benzyl)-2,5-dioxoimidazolidin-1-yl)-2-(2-methylpropyl)acetylamino)-3-methylpropionic Acid]
